Results published in patent US11344510B2, “Arylcyclohexylamine derivatives and their use in the treatment of psychiatric disorders” (Gilgamesh Pharmaceuticals, Inc., priority 2019, dated 2022).

Columns and labels:
[1] = HLM stability (Low Activity, Alternative Method); format: in vitro ADME; settings: both sexes, human, liver microsomes, pH 7.4, Condition 1 column, values marked *: Low Activity, 0.50 mg protein/mL
Description: (§1) HLM Stability (Low Activity, Alternative Method). Pooled HLM from adult male and female donors (Corning 452117) were used. Microsomal incubations were carried out in multi-well plates. Liver microsomal incubation medium consisted of PBS (100 mM, pH 7.4), MgCl2 (1 mM), and NADPH (1 mM), with 0.50 mg of liver microsomal protein per mL. Control incubations were performed by replacing the NADPH-cofactor system with PBS. Test compounds (1 μM, final solvent concentration 1.0%) were incubated with microsomes at 37° C. with constant shaking. Six time points over 60 minutes were analyzed, with 60 μL aliquots of the reaction mixture being drawn at each time point. The reaction aliquots were stopped by adding 180 μL of cold (4° C.) acetonitrile containing 200 ng/mL tolbutamide and 200 ng/mL labetalol as internal standards (IS), followed by shaking for 10 minutes, and then protein sedimentation by centrifugation at 4000 rpm for 20 minutes at 4° C. Supernatant samples (80 μL) were diluted with water (240 μL) and analyzed for parent compound remaining using a fit-for-purpose liquid chromatography-tandem mass spectrometry (LC-MS/MS) method.
(§2) Data Analysis. The elimination constant (kel), half-life (t1/2) and intrinsic clearance (Clint) were determined in a plot of […] versus time, using linear regression analysis.

[2] = MLM stability (Low Activity); format: in vitro ADME, CD-1 mice; settings: male, CD-1, mouse, liver microsomes, pH 7.4, Condition 1 (Low Activity), 0.50 mg protein/mL
Description: as §1, with “MLM” for “HLM”, “Activity).” for “Activity, Alternative Method).”, “from” for “from adult”, “CD-1 mice (XenoTech M1000)” for “and female donors (Corning 452117)”
as §2

[3] = RLM stability (Low Activity); format: in vitro ADME, Sprague Dawley rats; settings: male, Sprague Dawley, rat, liver microsomes, pH 7.4, Condition 1 (Low Activity), 0.50 mg protein/mL
Description: as §1, with “RLM” for “HLM”, “Activity).” for “Activity, Alternative Method).”, “from” for “from adult”, “Sprague Dawley rats (XenoTech R1000)” for “and female donors (Corning 452117)”
as §2

[4] = target: MK-801 binding site of the N-methyl-D-aspartate receptor (NMDAR); experiment: NMDAR radioligand binding with [3H]MK-801, Method B; design: species or system Sprague Dawley rat; settings: MK-801 site, Method B, male Sprague Dawley rat cortex, 5.0 nM [3H]MK-801; read-out: NMDAR Ki ± SEM
Description: Radioligand Binding—Method B. Affinity of the test compounds for NMDAR was determined in radioligand binding experiments with [^3H]MK-801 by WuXi AppTec (Hong Kong) Limited, under the conditions described in Table 13.

[5] = target: T1, serotonin transporter (SERT) (Homo sapiens, UniProt P31645); experiment: Fluorescent substrate uptake inhibition, SERT; format: cell-based; settings: for inhibition at 10 µM: HEK293 cells expressing SERT
T1 construct: expressed in transfected cells; host or cells: HEK293
T1 sequence (P31645 whole entry, species assumed): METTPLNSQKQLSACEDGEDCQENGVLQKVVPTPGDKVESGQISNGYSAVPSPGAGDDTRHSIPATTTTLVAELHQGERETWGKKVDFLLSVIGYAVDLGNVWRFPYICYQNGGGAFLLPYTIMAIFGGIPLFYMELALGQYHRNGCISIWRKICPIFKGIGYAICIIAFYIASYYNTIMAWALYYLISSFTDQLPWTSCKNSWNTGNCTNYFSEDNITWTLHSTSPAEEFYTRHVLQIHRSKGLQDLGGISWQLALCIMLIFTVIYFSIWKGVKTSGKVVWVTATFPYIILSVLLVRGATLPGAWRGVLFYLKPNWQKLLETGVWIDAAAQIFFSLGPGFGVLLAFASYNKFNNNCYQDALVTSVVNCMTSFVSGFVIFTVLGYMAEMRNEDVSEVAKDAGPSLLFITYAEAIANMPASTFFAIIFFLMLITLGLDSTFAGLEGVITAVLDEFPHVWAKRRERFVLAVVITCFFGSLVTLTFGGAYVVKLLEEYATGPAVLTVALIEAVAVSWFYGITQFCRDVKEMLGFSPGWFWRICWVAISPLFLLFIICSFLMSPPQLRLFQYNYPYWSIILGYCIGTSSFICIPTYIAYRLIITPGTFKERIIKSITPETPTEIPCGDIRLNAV
Description: (§3) Uptake Inhibition. The ability of test compounds to block monoamine uptake by SERT, NET, DAT, and VMAT2 was determined using the Neurotransmitter Transporter Uptake Assay Kit manufactured by Molecular Devices (Cat #R8173). Briefly, stably transfected cells expressing the MAT of interest (HEK293 cells for SERT and NET; CHO cells for DAT) were grown and plated into 384-well plates at a concentration of 20,000 cells per well. Plates were then incubated for 16-20 h at 37° C. and 5% CO2. The medium was then aspirated and replaced with 25 μL of assay buffer (20 mM HEPES in HBSS, containing 0.1% BSA) containing the test compounds at the appropriate concentrations. Plates were then centrifuged at 300 rpm for 15 s and then incubated at 37° C. for 30 minutes. At this time, 25 μL of the proprietary fluorescent dye solution was added, the plates were incubated at 37° C. for 60 minutes, and then fluorescence was quantified on a plate reader (excitation wavelength=440 nm, emission wavelength=520 nm). The proprietary dye solution contains a mixture of 1) a fluorescent dye that mimics the endogenous substrates of MATs and is thereby actively transported to the intracellular compartment in the absence of an inhibitor and 2) a masking dye that inhibits the fluorescence of dye 1 in the extracellular compartment. Therefore, the overall fluorescence of the system increases as the fluorescent dye is transported into the cells.

[6] = target: T2, norepinephrine transporter (NET) (Homo sapiens, UniProt P23975); experiment: Fluorescent substrate uptake inhibition, NET; format: cell-based; settings: for inhibition at 10 µM: HEK293 cells expressing NET
T2 construct: expressed in transfected cells; host or cells: HEK293
T2 sequence (P23975 whole entry, species assumed): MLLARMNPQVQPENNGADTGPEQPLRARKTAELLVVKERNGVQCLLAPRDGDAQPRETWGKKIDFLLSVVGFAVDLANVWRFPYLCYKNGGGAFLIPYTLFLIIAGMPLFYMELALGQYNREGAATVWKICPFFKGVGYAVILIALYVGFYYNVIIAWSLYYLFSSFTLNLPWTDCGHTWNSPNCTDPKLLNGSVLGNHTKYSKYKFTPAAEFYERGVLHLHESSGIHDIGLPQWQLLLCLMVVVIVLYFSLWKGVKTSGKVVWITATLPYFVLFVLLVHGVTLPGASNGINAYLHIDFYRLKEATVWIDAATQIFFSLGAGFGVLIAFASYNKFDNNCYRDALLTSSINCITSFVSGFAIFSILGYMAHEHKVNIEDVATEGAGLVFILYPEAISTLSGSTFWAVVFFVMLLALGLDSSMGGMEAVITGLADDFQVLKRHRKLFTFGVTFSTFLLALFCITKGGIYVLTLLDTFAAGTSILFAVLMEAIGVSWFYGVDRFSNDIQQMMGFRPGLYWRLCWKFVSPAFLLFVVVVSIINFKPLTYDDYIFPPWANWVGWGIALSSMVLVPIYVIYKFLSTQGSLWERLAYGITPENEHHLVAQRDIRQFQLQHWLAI
Description: as §3

[7] = target: T3, dopamine transporter (DAT) (Homo sapiens, UniProt Q01959); experiment: Fluorescent substrate uptake inhibition, DAT; format: cell-based; settings: for inhibition at 10 µM: CHO cells expressing DAT
T3 construct: expressed in transfected cells; host or cells: CHO (uptake)
T3 sequence (Q01959 whole entry, species assumed): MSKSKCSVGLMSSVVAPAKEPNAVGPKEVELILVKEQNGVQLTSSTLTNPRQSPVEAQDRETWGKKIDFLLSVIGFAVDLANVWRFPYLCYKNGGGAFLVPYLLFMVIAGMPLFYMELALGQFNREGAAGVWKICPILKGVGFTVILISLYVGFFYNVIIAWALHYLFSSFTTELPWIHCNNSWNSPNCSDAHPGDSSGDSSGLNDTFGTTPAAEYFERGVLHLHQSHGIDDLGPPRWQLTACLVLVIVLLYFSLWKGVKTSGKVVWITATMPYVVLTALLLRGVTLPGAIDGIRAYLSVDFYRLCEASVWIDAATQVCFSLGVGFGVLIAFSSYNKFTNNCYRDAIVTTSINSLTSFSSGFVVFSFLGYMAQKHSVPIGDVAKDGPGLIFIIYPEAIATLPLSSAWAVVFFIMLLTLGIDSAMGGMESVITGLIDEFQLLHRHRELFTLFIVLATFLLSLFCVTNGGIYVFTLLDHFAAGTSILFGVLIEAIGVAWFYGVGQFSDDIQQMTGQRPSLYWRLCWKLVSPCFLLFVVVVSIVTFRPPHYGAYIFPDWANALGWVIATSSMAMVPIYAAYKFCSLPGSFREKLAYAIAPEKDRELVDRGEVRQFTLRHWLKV
Description: as §3

[8] = target: T4, vesicular monoamine transporter 2 (VMAT2) (Homo sapiens, UniProt Q05940); experiment: Fluorescent substrate uptake inhibition, VMAT2; format: cell-based; settings: for inhibition at 10 µM: transfected cells
T4 construct: expressed in transfected cells
T4 sequence (Q05940 whole entry, species assumed): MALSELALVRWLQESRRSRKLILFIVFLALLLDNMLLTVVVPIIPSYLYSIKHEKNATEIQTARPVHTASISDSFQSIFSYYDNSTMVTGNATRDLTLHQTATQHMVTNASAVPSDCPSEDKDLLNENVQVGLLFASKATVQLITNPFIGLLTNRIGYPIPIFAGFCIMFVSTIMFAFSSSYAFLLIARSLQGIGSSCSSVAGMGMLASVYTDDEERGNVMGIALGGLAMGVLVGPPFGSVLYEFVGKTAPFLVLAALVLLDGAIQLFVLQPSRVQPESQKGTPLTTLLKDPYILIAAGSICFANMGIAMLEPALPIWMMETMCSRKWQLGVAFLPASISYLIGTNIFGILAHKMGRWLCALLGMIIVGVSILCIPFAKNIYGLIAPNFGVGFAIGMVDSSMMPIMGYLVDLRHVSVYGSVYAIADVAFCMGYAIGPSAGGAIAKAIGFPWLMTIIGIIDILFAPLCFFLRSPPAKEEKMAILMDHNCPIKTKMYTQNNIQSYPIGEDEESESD
Description: as §3

| SMILES | half-life at 1 μM [1] [min] | microsomal CLint at 1 μM [1] [µL/min/mg] | half-life at 1 μM [2] [min] | microsomal CLint at 1 μM [2] [µL/min/mg] | half-life at 1 μM [3] [min] | microsomal CLint at 1 μM [3] [µL/min/mg] | Ki [4] [µM] | inhibition at 10 µM [5] [%] | inhibition at 10 µM [6] [%] | inhibition at 10 µM [7] [%] | inhibition at 10 µM [8] [%] | IC50 [5] [µM] | IC50 [6] [µM] | IC50 [7] [µM] | IC50 [8] [µM] |
| --- | --- | --- | --- | --- | --- | --- | --- | --- | --- | --- | --- | --- | --- | --- | --- |
| CC1CN(C2(c3ccccc3)CCCCC2=O)C1 (racemic) [Compound 129rac, 2-(3-methylazetidin-1-yl)-2-phenyl-cyclohexan-1-one] | 134 | 10.4 | 9.3 | 149 | 24.1 | 57.5 | 0.52 | 28 | 10.6 | 35.8 | 31.9 | – | – | – | – |
| NC1(c2ccc(F)cc2)CCCCC1=O (racemic) [Compound 117rac, 2-amino-2-(4-fluorophenyl)cyclohexan-1-one] | > 145 | < 9.6 | > 145 | < 9.6 | > 145 | < 9.6 | 8.4 | -0.91 | 5 | 6.8 | 17.1 | – | – | – | – |
| O=C1CCCC[C@@]1(c1ccccc1)N1CCOCC1 [Compound 31S, (S)-2-morpholino-2-phenylcyclohexan-1-one] | 61 | 22.7 | 10.8 | 128 | 9.6 | 144 | > 23 | -7.9 | 1.6 | 16.9 | -5.5 | – | – | – | – |
| CC1CCN1C1(c2ccccc2)CCCCC1=O (stereo not shown) [Compound 128mix, 2-(2-methylazetidin-1-yl)-2-phenylcyclohexan-1-one] | 87 | 15.9 | 20.3 | 68.3 | 27.4 | 50.6 | 1.9 | 81.9 | -2.9 | 19.2 | 23.4 | – | – | – | – |
| Cc1ccc(C2(N)CCCCC2=O)cc1 (racemic) [Compound 120rac, 2-amino-2-(p-tolyl)cyclohexan-1-one] | > 145 | < 9.6 | 112 | 12.4 | 3.6 | 380 | 23 | 27.5 | 7.1 | 5.3 | 41 | – | – | – | – |
| O=C1CCCC[C@]1(c1ccccc1)N1CCCC1 [Compound 27R, (R)-2-phenyl-2-(pyrrolidin-1-yl)cyclohexan-1-one] | > 145 | < 9.6 | 40.4 | 34.3 | 55.9 | 24.8 | 3.1 | – | – | – | – | 2.1 | 17.3 | 21 | 18.1 |
| CCN(CC)[C@@]1(c2ccccc2)CCCCC1=O [Compound 25R, (R)-2-(diethylamino)-2-phenylcyclohexanone] | 49 | 28.3 | 8.5 | 163 | 15.3 | 90.3 | 5.5 | 26.9 | 20.8 | 20.8 | -10.3 | – | – | – | – |
| CNC1(c2cccc(C)c2)CCCCC1=O (racemic) [Compound 23rac, 2-(methylamino)-2-(m-tolyl)cyclohexan-1-one] | 133 | 10.4 | 52.7 | 26.3 | 3.6 | 390 | 4.6 | -1 | 8 | 8.5 | 16 | – | – | – | – |
| O=C1CCCC[C@]1(c1ccccc1)N1CCOCC1 [Compound 31R, (R)-2-morpholino-2-phenylcyclohexan-1-one] | 45.7 | 30.3 | 11.2 | 124 | 6.8 | 204 | > 23 | -1.2 | 1.3 | 9.8 | -3.4 | – | – | – | – |
| COCCN[C@@]1(c2ccccc2)CCCCC1=O [Compound 29R, (R)-2-((2-methoxyethyl)amino)-2-phenylcyclohexan-1-one] | > 145 | < 9.6 | 30.1 | 46.1 | 32.2 | 43 | > 23 | 19.6 | -16 | -7.1 | -31.9 | – | – | – | – |
| Cc1cccc(C2(N)CCCCC2=O)c1 (racemic) [Compound 118rac, 2-amino-2-(m-tolyl)cyclohexan-1-one] | > 145 | < 9.6 | 84.4 | 16.4 | 7.2 | 192 | 4.5 | 16.9 | 19.5 | 23.8 | 36.6 | – | – | – | – |
